Patent US20220273926A1, “DRUG DELIVERY USING MICRONEEDLE ARRAYS” (BOARD OF REGENTS OF THE UNIVERSITY OF NEBRASKA, priority 2019, published 2022)
Entries after “also recorded” stand apart in the source; their conditions may differ. Like-named read-outs stand apart in the source and are kept apart here.

Columns and labels:
[1] = Drug adsorption to the bandage: solution perfused through the MNAs; type: physicochemical; conditions: perfusion through bandage and MNAs; BSA 54 ng/mL, cefazolin 16 μg/mL
Procedure: Once the system was characterized, the efficiency of the bandage in drug delivery was evaluated. Initially, the potential drug adsorption to the engineered bandage was to be tested. […] The solution was then collected at different time points after perfusion through the MNAs and the concentration of the drugs determined using a total protein assay (for BSA) and UV-Vis spectrophotometry (for cefazolin).
Drug Delivery Characterization: The potential protein and drug adsorption by the bandage, tubing, and MNAs were investigated by perfusing a solution with known concentrations of cefazolin salt and BSA. 150 μL of the delivered solution was collected at different time points and the concentrations of cefazolin and BSA were determined by measuring the solution absorbance for cefazolin and BCA protein assay kit for BSA.

[2] = after 180 min, target 20 μg/mL
Description: The intradermal drug delivery kinetics were further evaluated by developing an in vitro model mimicking the structure of wounds in which eschar and granulation tissue separates the endothelial cells from the outside environment. This model, illustrated schematically in FIG. 2a, consisted of a cell culture insert with a porous membrane covered by agarose (3% w/v) with ˜2 mm thickness, and the bottom well represented the environment of endothelial cells.
Assessment of release kinetics: To mimic the chronic wound tissue, 12-well cell culture inserts were filled with 150 μL of 3% (w/v) agarose. […] Inserts were divided into 3 groups (4 replicate/group) with respect to the method of delivery, including topical, MNA, and LJI. To measure the concentration of the delivered solution, at each time point 100 μL was removed and then replaced with the same volume of fresh PBS. After collecting all samples, the concentration was measured by a plate reader (Cytation 5, BioTek) followed by data analysis to extract the related release graphs. In the case of BSA, measurement process was followed based on manufacturer's protocol.

keratinocytes = assay: Scratch test assay on keratinocytes contaminated with S. aureus; type: cell-based, human; conditions: keratinocyte monolayer contaminated with S. aureus
Procedure: A standard scratch test assay was used to evaluate the cell migration in presence of bacteria. […] To perform this experiment, the scratch was created over a monolayer of the confluent keratinocytes, which were contaminated with S. aureus in advance. Three groups were used for this set of experiments: (1) cefazolin powder as a positive control, (2) alginate without antibiotic loading as a negative control, and (3) alginate containing cefazolin.
Keratinocytes (1×10^5) were seeded and cultured in a six-well plate and kept overnight to make a confluent monolayer overnight. The 1 mm wide gap scratch was then created onto the monolayer with a 200 μL pipette tip, and floating cells were removed by twice washing with PBS. After the line scratches, 2 mL of DMEM was added for each group. To detect the efficacy of treatments on cell migration, samples were continually imaged for 0, 8, 24, and 48 h. Images of the monolayer were taken by a microscope and cell migration activity was evaluated as the migration distance from the edges of the scratch toward the center of it using Image J software (NIH, Bethesda, Md., USA). For each well, ten images were taken and selected randomly. Experiments were done independently in triplicate.

[3] = Cefazolin release from thermo-responsive alginate/PNIPAM patch with heater; type: physicochemical; conditions: PNIPAM carriers in alginate patch, heat applied; over 1 h
Description: To minimize the thermal contact resistance between the microheater and the hydrogel layer, the hydrogel was directly cast on top of the heater. Chronic wounds are known for their high rate of exudate generation and thus exudate management is important in the proper function of the sensors and drug delivery modules. The utilized alginate-based hydrogels are known for high water uptake and swelling ratios and have been used in engineering wet wound dressings. In addition, since the sensors are in direct contact with the skin, the swelling of the hydrogels is not expected to affect the readout. To visualize the drug release, rhodamine B was loaded into PNIPAM particles and the system was heated while being monitored under a microscope. […] After applying heat to the alginate patch, the cefazolin release profile was measured over time. […] To assess the possibility of releasing drugs in a dynamic fashion, heat was applied periodically (30 min on, 30 min off) and the drug release amount was determined. […]
Drug Release with Integrated Heaters: Alginate hydrogel with embedded drug microcarriers was attached on the surface of the microheater while 200 μL PBS was added into the plate and electrical voltage was applied to generate heat. The drug released into the solution was evaluated using plate reader.

Cc1nnc(SCC2=C(C(=O)O)N3C(=O)[C@@H](NC(=O)Cn4cnnn4)[C@H]3SC2)s1 [cefazolin]
temporal changes in the drug concentration within the perfused solution [1]: not statistically significant; also recorded: insignificant change in concentration
delivered into the bottom chamber (overall efficiency of delivery) ([2]; LJI): more than 90%
delivered into the bottom chamber (overall efficiency of delivery) ([2]; MNAs): ~65%
delivered into the bottom chamber (overall efficiency of delivery) ([2]; topical (TOP)): ~25%
cell migration in scratch assay (keratinocytes): rapid migration toward the opening area was observed
drug released [3]: about 80%
